The supplement of paper PMC10331698
± gives the standard deviation of the averaged measurements.

How the values were obtained:
Test in all cases: level (log10 ratio to DMSO vehicle control); higher = higher biomarker level / cell amount than vehicle control
[1] = compound: C=CC(=O)OCCC(F)(F)C(F)(F)C(F)(F)C(F)(F)C(F)(F)C(F)(F)C(F)(F)C(F)(F)F [8:2 Fluorotelomer acrylate]; settings: in DMSO
Procedure: (§1)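 BioMAP Diversity Plus panel of 12 human primary cell co-culture systems (3C, 4H, LPS, SAg, BT, BF4T, BE3C, CASM3C, HDF3CGF, KF3CT, MyoF, Mphg). Compounds were added 1 h before stimulation and left for 24 h (MyoF 48 h; BT 72 h for soluble read-outs or 6 d for IgG). Biomarkers were read by ELISA, cytotoxicity by SRB, PBMC viability and proliferation by Alamar Blue. Each well value was divided by the mean of 8 DMSO control wells on the same plate and log10 transformed; duplicate blinded samples were tested at 4 concentrations.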

[2] = compound: O=C(O)C(F)(F)C(F)(F)C(=O)O [Tetrafluorosuccinic acid]; settings: in DMSO
Procedure: as §1

[3] = compound: O=C(O)C(F)(F)C(F)(F)C(F)(F)C(F)(F)C(F)(F)C(F)(F)C(F)(F)F [Ammonium perfluorooctanoate]; settings: in DMSO
Procedure: as §1

[4] = compound: O=C(O)C(F)(F)C(F)(F)C(F)(F)C(F)(F)C(F)(F)C(F)(F)C(F)(F)F [Perfluorooctanoic acid]; settings: in DMSO
Procedure: as §1

[5] = compound: O=S(=O)(OCC(F)(F)F)C(F)(F)C(F)(F)C(F)(F)C(F)(F)F [2,2,2-Trifluoroethyl perfluorobutanesulfonate]; settings: in DMSO
Procedure: as §1

[6] = compound: OCC(F)(F)C(F)(F)C(F)(F)C(F)(F)C(F)(F)C(F)(F)C(F)(F)C(F)(F)C(F)(F)C(F)(F)C(F)(F)F [11:1 Fluorotelomer alcohol]; settings: in DMSO
Procedure: as §1

[7] = compound: OCCC(F)(F)C(F)(F)C(F)(F)C(F)(F)C(F)(F)C(F)(F)C(F)(F)C(F)(F)F [8:2 Fluorotelomer alcohol]; settings: 6700 nM; in DMSO
Procedure: as §1

Test System	level (log10) ([1]; 6700 nM)	level (log10) ([1]; 20000 nM)	level (log10) ([1]; 60000 nM)	level (log10) ([2]; 6700 nM)	level (log10) ([2]; 20000 nM)	level (log10) ([2]; 60000 nM)	level (log10) ([3]; 6700 nM)	level (log10) ([3]; 20000 nM)	level (log10) ([3]; 60000 nM)	level (log10) ([4]; 6700 nM)	level (log10) ([4]; 20000 nM)	level (log10) ([4]; 60000 nM)	level (log10) ([5]; 6700 nM)	level (log10) ([5]; 20000 nM)	level (log10) ([5]; 60000 nM)	level (log10) ([6]; 1100 nM)	level (log10) ([6]; 3300 nM)	level (log10) ([6]; 10000 nM)	level (log10) [7]
MyoF:CD106/VCAM-1	-0.012 ± 0.0071	-0.0335 ± 0.0078	-0.027 ± 0.023	-0.0095 ± 0.016	0.0005 ± 0.019	-0.015 ± 0.0085	-0.011 ± 0.016	-0.017 ± 0.0085	-0.017 ± 0.0057	0.0065 ± 0.011	0.004 ± 0.0028	0.0095 ± 0.00071	-0.01 ± 0.011	0.026 ± 0.014	-0.0075 ± 0.0021	-0.0055 ± 0.037	-0.0075 ± 0.022	-0.0025 ± 0.00071	-0.026 ± 0.016
lMphg:sIL-10	-0.058 ± 0.016	-0.014 ± 0.062	-0.0465 ± 0.012	-0.0085 ± 0.016	-0.0265 ± 0.097	0.0415 ± 0.11	-0.0655 ± 0.049	-0.042 ± 0.021	-0.16 ± 0.028	-0.0525 ± 0.032	-0.0035 ± 0.11	-0.219 ± 0.051	0.072 ± 0.0042	0.0465 ± 0.0035	-0.171 ± 0.052	-0.0255 ± 0.069	-0.0875 ± 0.066	-0.216 ± 0.082	-0.17 ± 0.013
HDF3CGF:TIMP-2	-0.014 ± 0.027	-0.0405 ± 0.0064	-0.0295 ± 0.0092	-0.052 ± 0.042	-0.069 ± 0.025	-0.1 ± 0.018	0.0225 ± 0.015	0.0535 ± 0.039	0.047 ± 0.05	-0.013 ± 0.014	0.0045 ± 0.019	0.033 ± 0.0042	0.0105 ± 0.013	0.0375 ± 0.021	0.06 ± 0.0014	0.001 ± 0.0042	-0.045 ± 0.016	-0.0325 ± 0.013	-0.0475 ± 0.079
lMphg:SRB	-0.003 ± 0.0085	-0.0105 ± 0.016	-0.004 ± 0.034	-0.008 ± 0.0014	0.001	0.001 ± 0.013	-0.0125 ± 0.0035	-0.004 ± 0.0028	0.0015 ± 0.005	-0.008 ± 0.0071	-0.0005 ± 0.005	0.011 ± 0.017	-0.005 ± 0.0071	-0.012 ± 0.0085	-0.008 ± 0.018	0.0045 ± 0.00071	0.001	-0.0205 ± 0.005	-0.02
3C:CCL2/MCP-1	0.005 ± 0.0042	-0.0155 ± 0.0064	0.019 ± 0.016	-0.0065 ± 0.016	-0.006 ± 0.0028	0.0005 ± 0.0064	-0.002 ± 0.0099	0.004 ± 0.025	0.0315 ± 0.035	0.0055 ± 0.016	0.008 ± 0.0071	0.04 ± 0.034	0.0095 ± 0.011	0.004 ± 0.035	0.023 ± 0.057	-0.0005 ± 0.0064	-0.007 ± 0.021	0.003 ± 0.04	-0.0025 ± 0.0021
CASM3C:IL-6	-0.023 ± 0.0099	-0.017 ± 0.027	0.0105 ± 0.05	-0.0165 ± 0.015	-0.0295 ± 0.0078	-0.0015 ± 0.036	-0.0035 ± 0.025	-0.024 ± 0.048	-0.018 ± 0.05	-0.0135 ± 0.019	-0.022 ± 0.027	-0.008 ± 0.031	-0.02 ± 0.033	-0.0685 ± 0.0078	-0.029 ± 0.024	-0.0065 ± 0.00071	-0.022 ± 0.025	0.005 ± 0.02	-0.015 ± 0.014
MyoF:alpha-SM Actin	0.0185 ± 0.069	0.0145 ± 0.063	0.009 ± 0.059	0.0065 ± 0.025	-0.0165 ± 0.015	-0.0275 ± 0.037	-0.0145 ± 0.0078	-0.016 ± 0.0071	-0.0295 ± 0.04	0.014 ± 0.02	0.0155 ± 0.047	-0.0035 ± 0.032	-0.0265 ± 0.025	-0.0175 ± 0.047	-0.0235 ± 0.005	-0.0025 ± 0.015	-0.0195 ± 0.03	0.0045 ± 0.018	-0.021 ± 0.024
lMphg:M-CSF	-0.0195 ± 0.042	-0.013 ± 0.014	-0.003 ± 0.016	-0.005 ± 0.018	-0.0105 ± 0.0092	0.019 ± 0.03	-0.018 ± 0.0099	-0.018 ± 0.037	0.0055 ± 0.0021	-0.007 ± 0.0042	0.0105 ± 0.019	0.0185 ± 0.029	0.035 ± 0.017	0.014 ± 0.018	-0.006 ± 0.021	-0.0045 ± 0.005	-0.0195 ± 0.0078	-0.0735 ± 0.016	-0.0345 ± 0.021
BE3C:PAI-I	-0.0355 ± 0.0092	-0.018	0.0055 ± 0.025	-0.011 ± 0.0071	0.002 ± 0.018	-0.001 ± 0.023	0.014 ± 0.023	0.0045 ± 0.005	0.0255 ± 0.016	0.001 ± 0.0042	0.0395 ± 0.013	0.041 ± 0.0028	-0.0005 ± 0.011	0.003 ± 0.0085	0.014 ± 0.011	-0.045 ± 0.057	-0.0855 ± 0.054	-0.0555 ± 0.07	-0.055 ± 0.021
KF3CT:IL-1alpha	0.0005 ± 0.011	-0.0245 ± 0.00071	-0.0355 ± 0.04	-0.012 ± 0.0042	-0.0385 ± 0.019	0.007 ± 0.023	-0.0065 ± 0.00071	-0.026 ± 0.0071	-0.079 ± 0.025	0.018 ± 0.0057	0.012 ± 0.0014	-0.0395 ± 0.0035	-0.011 ± 0.03	-0.003 ± 0.011	0.0195 ± 0.0078	0.0015 ± 0.028	-0.0425 ± 0.0064	-0.021 ± 0.011	-0.0545 ± 0.029
